{
  "source": "patent US20110160244A1",
  "about": "“PHENYL[…] MU-OPIOID RECEPTOR” (AUSPEX PHARMACEUTICALS, INC., priority 2008, published 2011)",
  "origin": "cited, not measured here",
  "key": {"[1]": {"conditions": "after oral administration"}},
  "data": [
    {"smiles": "CCOC(=O)C1(c2ccccc2)CCN(C)CC1", "note": "[Meperidine, Ethyl 1-methyl-4-phenylpiperidine-4-carboxylate]", "values": [
      {"measurement": "fraction escaping first-pass metabolism", "setting": "[1]", "value": "about 50%"},
      {"measurement": "time to peak analgesic effect", "setting": "following oral administration", "value": "≤ 2", "unit": "h"},
      {"measurement": "time until analgesic effects are detectable", "setting": "following oral administration", "value": "≤ 15", "unit": "min"},
      {"measurement": "time for which the drug is effective", "setting": "statement on dosing interval", "value": 2, "unit": "h"}
    ]}
  ]
}
